Tests used:
VEGFR2 (KDR) = VEGFR2 (KDR) (Homo sapiens (Human), UniProt P35968); assay: VEGFR2 (KDR) enzyme assay, fluorescence polarization; type: biochemical; settings: 5 μM ATP, poly(Glu, Tyr) substrate
Method: VEGFR2 (KDR, Proquinase) enzyme assay (auto-phosphorylation assay) was carried out by using Tyrosine Kinase Assay Kit Green (Panvera). The entire assay was conducted in accordance with VEGFR PTK inhibitor cellular activity test S.O.P.
A typical kinase inhibition reaction requires a protein tyrosine kinase, a suitable buffer solution system, a peptide substrate and ATP. In the present VEGFR tyrosine kinase assay, a buffer solution system containing 20 mM HEPES (pH 7.4), 5 mM MgCl2 and 2 mM MnCl2; 50 μM Na3VO4; 200 ng/10 μl VEGFR (Proquinase); 5 μM ATP; and 10 ng/ml poly(Glu, Tyr) (4:1, Sigma) as a substrate were used.
The compounds of Test Example 1 were used as control compounds at a concentration of 0.0001 to 10 μM. After 10 min, 10 μl of poly(Glu, Tyr) as a substrate was added to each well, and 10 μl of ATP was added thereto to initiate kinase reaction. The plate was incubated at room temperature for 1 hour, and 10 μl of 100 mM EDTA was added to each well to terminate the kinase reaction.
The added EDTA was mixed for 5 min. Thereafter, 10 μl of 10× anti-phosphotyrosine antibody (Panvera), 10 μl of 10×PTK Green Tracer (Panvera) and 30 μl of FP dilution buffer (Panvera) were added thereto, and the plate was incubated in a dark room at room temperature for 30 min.

[1] = test system: Human Umbilical Vein Endothelial Cell (HUVEC); assay: Inhibitory effect on growth of human umbilical vein endothelial cell (HUVEC), MTS; type: cell-based; settings: Homo sapiens, 96 h, 10 ng/ml VEGF, absorbance 490 nm
Method: HUVECs (Young Science, Inc) were suspended in a culture medium, EBM-2 (Endothelial Basic Media, Cambrex) supplemented with 2% bovine serum (Cambrex) and auxiliary additives for HUVEC culture (e.g., EGF, VEGF, FGF, etc., Cambrex), inoculated into a culture flask coated with 1% gelatin, and incubated in an incubator at 37° C. under 5% CO2 and 100% humidity.
100 μl of 5% bovine serum medium containing 10 ng/ml of vascular endothelial growth factor (VEGF) and auxiliary additives, while excluding other growth factors was added to each well of a 96-well plate. […] DMSO (Dimethylsulfoxide) was used to dissolve the test compounds, and the final concentration of DMSO was less than 1%.
100 μl of the diluted cell solution was added to each well of the 96-well plate, which was incubated in an incubator for 96 hours.
Then, 20 μl of MTS ([…], Promega) solution was added to each well of the plate, and the plate was incubated in an incubator for 4 hours to induce discoloration. After 4 hours, the pellets were dissolved by way of a thorough shaking, and the absorbance at 490 nm was determined.

[2] = test system: breast cancer cell line, SK-Br3; assay: Inhibitory effect on growth of cancer cell line SK-Br3, SRB; type: cell-based; settings: Homo sapiens, SK-BR-3, 72 h, overexpressed EGFR2 (HER-2)
From the text: (§1) A skin cancer cell line, A431 (ATCC: CRL-1555), a breast cancer cell line, SK-Br3 (ATCC: HTB-30), and a colon and rectal cancer cell line, SW-620 (ATCC: CCL-227) were used to test the degrees of cancer cell growth inhibition using a culture medium, DEME (Dulbecco's Modified Eagle's Medium, JBI) including 4.5 g/l of glucose and 1.5 g/l of sodium bicarbonate and supplemented with 10% FBS (fetal bovine serum, JBI).
(§2) The cancer cell lines stored in a liquid nitrogen tank were each quickly thawed at 37° C., and centrifuged to remove the medium. The resulting cell pellet was mixed with a culture medium, incubated in a culture flask at 37° C. under 5% CO2 for 2 to 3 days, and the medium was removed. The remaining cells were washed with DPBS (Dulbecco's Phosphate Buffered Saline, JBI) and separated from the flask by using Trypsin-EDTA solution, and the separated cells were diluted with a culture medium to a concentration of 1.0×10^6 cells/ml in case of A431 and SW-620, and 2.0×10^6 cells/ml in case of SK-Br3. 100 μl of the diluted cell solution was added to each well of a 96-well plate, which was incubated at 37° C. under 5% CO2 for 1 day.
(§3) In case that the test compound was not soluble in DMSO, a small amount of 1% HCl was added thereto and treated in a 40° C. water bath for 30 mins until complete dissolution was attained. The test compound solution was diluted with a culture medium to a final concentration of 10 μM, and then diluted 10 times serially to 10^−4. The final concentration of DMSO was less than 1%, and the control compounds of Test Example 1 were used at a concentration of 0.0001 to 10 μM.
(§4) The medium was removed from each well of the 96-well microplate, 100 μl of a diluted test compound solution was added to each well holding cultured cells, and the microplate was incubated at 37° C. under 5% CO2 for 72 hours. After removing the medium from the plate, 50 μl of 10% trichloroacetic acid was added to each well, and the plate was kept at 37° C. for 1 hour to fix the cells to the bottom of the plate. 10% trichloroacetic acid was removed from each well, the plate was dried, 100 μl of an SRB (Sulforhodamine-B, Sigma) dye solution was added thereto, and reacted for 10 mins. The SRB dye solution was prepared by dissolving SRB in 1% acetic acid to a concentration of 0.4%. After removing the dye solution, the plate was washed with water, and dried. When the dye solution was not removed by water, 1% acetic acid was used.
(§5) 150 μl of 10 mM trisma base (Sigma) was added to each well, and the absorbance at 570 nm was determined with a microplate reader (Molecular device).

[3] = test system: skin cancer cell line, A431; assay: Inhibitory effect on growth of cancer cell line A431, SRB; type: cell-based; settings: Homo sapiens, A-431, 72 h, overexpressed EGFR1 (HER-1)
From the text: as §1, §2, §3, §4, §5

EGFR1 (HER-1) = EGFR1 (HER-1) (Homo sapiens (Human), UniProt P00533); assay: EGFR1 (HER-1) enzyme assay, fluorescence polarization; type: biochemical; settings: 100 μM ATP, poly(Glu, Tyr) substrate
Sequence of EGFR1 (HER-1) (P00533 25-1210): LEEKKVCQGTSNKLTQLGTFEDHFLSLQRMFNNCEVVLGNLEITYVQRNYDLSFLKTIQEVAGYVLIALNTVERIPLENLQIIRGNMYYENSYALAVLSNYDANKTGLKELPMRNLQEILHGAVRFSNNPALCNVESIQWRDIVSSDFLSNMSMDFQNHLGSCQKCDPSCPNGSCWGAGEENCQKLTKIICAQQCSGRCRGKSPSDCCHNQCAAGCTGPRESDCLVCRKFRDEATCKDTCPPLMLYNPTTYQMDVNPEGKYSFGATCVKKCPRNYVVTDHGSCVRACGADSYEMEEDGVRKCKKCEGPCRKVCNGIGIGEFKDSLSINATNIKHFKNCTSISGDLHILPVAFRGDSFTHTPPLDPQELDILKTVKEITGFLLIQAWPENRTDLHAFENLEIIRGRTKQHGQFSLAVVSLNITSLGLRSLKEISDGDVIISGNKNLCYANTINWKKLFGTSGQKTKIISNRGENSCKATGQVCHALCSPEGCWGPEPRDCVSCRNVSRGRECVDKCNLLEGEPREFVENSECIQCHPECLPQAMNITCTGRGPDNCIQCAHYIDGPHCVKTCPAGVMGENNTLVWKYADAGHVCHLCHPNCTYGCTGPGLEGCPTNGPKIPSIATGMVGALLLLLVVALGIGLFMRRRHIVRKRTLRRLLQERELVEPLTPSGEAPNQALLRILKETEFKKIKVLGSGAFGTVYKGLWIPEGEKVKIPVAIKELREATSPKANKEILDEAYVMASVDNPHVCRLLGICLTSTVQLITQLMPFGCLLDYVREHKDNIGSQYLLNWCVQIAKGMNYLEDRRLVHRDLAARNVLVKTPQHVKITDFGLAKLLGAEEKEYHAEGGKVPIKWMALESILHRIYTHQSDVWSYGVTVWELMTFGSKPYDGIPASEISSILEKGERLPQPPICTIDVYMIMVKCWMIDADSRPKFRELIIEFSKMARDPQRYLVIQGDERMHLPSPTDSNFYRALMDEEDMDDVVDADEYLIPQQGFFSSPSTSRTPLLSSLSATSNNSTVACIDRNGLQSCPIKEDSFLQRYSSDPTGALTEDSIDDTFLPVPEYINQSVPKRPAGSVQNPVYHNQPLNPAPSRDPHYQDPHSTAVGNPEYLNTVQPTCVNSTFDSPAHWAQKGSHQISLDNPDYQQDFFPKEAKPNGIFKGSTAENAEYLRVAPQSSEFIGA

[4] = test system: colon and rectal cancer cell line, SW-620; assay: Inhibitory effect on growth of cancer cell line SW-620, SRB; type: cell-based; settings: Homo sapiens, 72 h, not having overexpressed EGFR and EGFR2
From the text: as §1, §2, §3, §4, §5

Sequence of VEGFR2 (KDR) (P35968 20-1356): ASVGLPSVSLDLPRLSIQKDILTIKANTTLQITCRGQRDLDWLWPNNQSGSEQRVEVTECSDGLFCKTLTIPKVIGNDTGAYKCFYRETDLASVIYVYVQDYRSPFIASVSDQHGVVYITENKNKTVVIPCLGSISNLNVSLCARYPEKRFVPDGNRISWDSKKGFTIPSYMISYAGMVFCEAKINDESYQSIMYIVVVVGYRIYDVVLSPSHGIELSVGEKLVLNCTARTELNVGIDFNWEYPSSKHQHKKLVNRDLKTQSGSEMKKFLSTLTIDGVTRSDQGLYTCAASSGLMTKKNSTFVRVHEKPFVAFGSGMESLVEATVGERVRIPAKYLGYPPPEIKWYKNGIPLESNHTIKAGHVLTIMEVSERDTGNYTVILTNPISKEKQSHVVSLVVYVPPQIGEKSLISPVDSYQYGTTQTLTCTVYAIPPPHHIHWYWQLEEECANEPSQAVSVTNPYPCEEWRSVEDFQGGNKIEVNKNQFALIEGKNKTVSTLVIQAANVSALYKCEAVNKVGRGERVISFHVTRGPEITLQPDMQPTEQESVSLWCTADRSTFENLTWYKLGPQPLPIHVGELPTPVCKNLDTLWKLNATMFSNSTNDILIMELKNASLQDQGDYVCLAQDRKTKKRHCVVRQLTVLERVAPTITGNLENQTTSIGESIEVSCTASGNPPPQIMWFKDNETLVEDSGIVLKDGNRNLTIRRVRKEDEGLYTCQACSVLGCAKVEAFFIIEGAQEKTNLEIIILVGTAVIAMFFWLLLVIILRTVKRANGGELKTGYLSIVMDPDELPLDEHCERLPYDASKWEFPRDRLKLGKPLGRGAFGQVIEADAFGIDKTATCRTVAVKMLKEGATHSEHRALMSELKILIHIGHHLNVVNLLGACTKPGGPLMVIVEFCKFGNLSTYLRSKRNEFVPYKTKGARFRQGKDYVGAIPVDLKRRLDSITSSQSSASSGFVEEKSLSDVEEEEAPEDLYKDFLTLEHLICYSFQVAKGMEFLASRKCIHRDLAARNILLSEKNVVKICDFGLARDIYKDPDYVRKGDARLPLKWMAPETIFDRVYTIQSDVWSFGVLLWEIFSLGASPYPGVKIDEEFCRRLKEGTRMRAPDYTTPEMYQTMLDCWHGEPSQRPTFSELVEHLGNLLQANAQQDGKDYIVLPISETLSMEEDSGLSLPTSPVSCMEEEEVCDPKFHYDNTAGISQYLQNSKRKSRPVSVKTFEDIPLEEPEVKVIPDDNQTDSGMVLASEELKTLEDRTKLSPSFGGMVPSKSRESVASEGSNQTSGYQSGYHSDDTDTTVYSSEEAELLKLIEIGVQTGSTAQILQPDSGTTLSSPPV

Row | Compound | IC50 (VEGFR2 (KDR)) | IC50 [1] | IC50 [2] | IC50 [3] | IC50 (EGFR1 (HER-1)) | IC50 [4]
1 | C=CC(=O)Nc1cc2c(Nc3ccc(Br)cc3F)ncnc2cc1OCCN [Example 29, N-[7-(2-amino-ethoxy)-4-(4-bromo-2-fluoro-phenylamino)-quinazolin-6-yl]-acrylamide] | 545 nM | 951 nM | 145 nM | 46 nM | 4 nM | 10000 nM
2 | C=CC(=O)Nc1cc2c(Nc3ccc(Br)c(Cl)c3F)ncnc2cc1OCCNC(=S)NCC [Example 170, N-{4-(4-bromo-3-chloro-2-fluoro-phenylamino)-7-[2-(3-ethyl-thioureido)-ethoxy]-quinazolin-6-yl}-acrylamide] | 189 nM | 287 nM | 43 nM | 89 nM | 68 nM | 8250 nM
3 | C=CC(=O)Nc1cc2c(Nc3ccc(Br)cc3F)ncnc2cc1OCCNCC(C)=O [Example 55, N-{4-(4-bromo-2-fluoro-phenylamino)-7-[2-(2-oxo-propylamino)-ethoxy]-quinazolin-6-yl}-acrylamide] | 471 nM | 359 nM | 437 nM | 426 nM | 589 nM | 4540 nM
4 | C=CC(=O)Nc1cc2c(Nc3ccc(Br)cc3F)ncnc2cc1OCCNC(=O)C(F)F [Example 22, N-{4-(4-bromo-2-fluoro-phenylamino)-7-[2-(2,2-difluoro-acetylamino)-ethoxy]-quinazolin-6-yl}-acrylamide] | 523 nM | 961 nM | 92 nM | 45 nM | 5 nM | 9780 nM
5 | C=CC(=O)Nc1cc2c(Nc3cc(Cl)c(Cl)cc3F)ncnc2cc1OCCN(C)C [Example 136, N-[4-(4,5-dichloro-2-fluoro-phenylamino)-7-(2-dimethylamino-ethoxy)-quinazolin-6-yl]-acrylamide] | 856 nM | 923 nM | 181 nM | 343 nM | 321 nM | 2940 nM
6 | C=CC(=O)Nc1cc2c(Nc3cc(Cl)c(Br)cc3F)ncnc2cc1OCCNC(=O)CN(C)C [Example 135, N-{4-(4-bromo-5-chloro-2-fluoro-phenylamino)-7-[2-(2-dimethylamino-acetylamino)-ethoxy]-quinazolin-6-yl}-acrylamide] | 784 nM | 1310 nM | 42 nM | 11 nM | 9 nM | 2430 nM
7 | C=CC(=O)Nc1cc2c(Nc3ccc(Br)cc3F)ncnc2cc1OC(C)CNC(C)=O (stereo not drawn) [Example 80, N-[7-(2-acetylamino-1-methyl-ethoxy)-4-(4-bromo-2-fluoro-phenylamino)-quinazolin-6-yl]-acrylamide] | 77 nM | 109 nM | 211 nM | 41 nM | 36 nM | 10000 nM
8 | C=CC(=O)Nc1cc2c(Nc3cc(F)c(Br)cc3F)ncnc2cc1OCCNC(C)=O [Example 119, N-[7-(2-acetylamino-ethoxy)-4-(4-bromo-2,5-difluoro-phenylamino)-quinazolin-6-yl]-acrylamide] | 782 nM | 921 nM | 178 nM | 14 nM | 12 nM | 2890 nM
9 | C=CC(=O)Nc1cc2c(Nc3ccc(Cl)nc3)ncnc2cc1OCCNC(C)=O [Example 128, N-[7-(2-acetylamino-ethoxy)-4-(6-chloro-pyridin-3-ylamino)-quinazolin-6-yl]-acrylamide] | 823 nM | 945 nM | 95 nM | 68 nM | 65 nM | 10000 nM
10 | C=CC(=O)Nc1cc2c(Nc3ccc(Br)cc3F)ncnc2cc1OCCOC [Example 32, N-[4-(4-bromo-2-fluoro-phenylamino)-7-(2-methoxy-ethoxy)-quinazolin-6-yl]-acrylamide] | 259 nM | 350 nM | 198 nM | 31 nM | 25 nM | 4550 nM

— US8846699B2, “Quinazoline derivatives as a multiplex inhibitor and method for the preparation thereof” (Hanmi Pharm. Co., Ltd., priority 2005, dated 2014)
